Patent publication US8968663B2, “Monitoring membrane-bound proteins” (University of Utah Research Foundation, priority 2011, dated 2015)

Key:
[1] = test system: ShakerB-IR K^+ ion channel; assay: Two-electrode voltage clamp of ShakerB-IR expressing Xenopus oocytes with Cu^2+ applied as ion channel blocker; type: cell-based; settings: ~120 μM Cu^2+ pipetted above the cell, FIG. 10
Description: Complementary deoxyribonucleic acid (cDNA) for the Shaker ion-channel variant ShakerB-IR (inactivation removed) was transformed in E. coli and linearized using the restriction enzyme, Kpn-1. cRNA was transcribed from linearized DNA, and 32 nL/cell of the transcribed RNA was injected into Xenopus oocytes. Recordings were done 24-48 hours after injection to allow time for protein expression. Currents were measured using two-microelectrode voltage clamp to verify ShakerB-IR ion channel expression. Oocytes were stored in Superbarths Oocyte media (88 mM NaCl, 1 mM KCl, 0.41 mM CaCl2, 0.33 mM Ca(NO3)2, 1 mM MgSO4, 2.4 mM NaHCO3, 10 mM HEPES, 1 mM pyruvate and 50 μg/ml gentamicin, titrated using NaOH to a pH of 7.4) at 17° Celsius (C.). Oocytes were also bathed in this media during RF recording.
(§1) Oocytes were positioned into a recording chamber consisting of an RF belt electrode surrounding the meridian of the cell and a ground electrode located in the oocyte media above an axial pole of the cell. Two glass micropipettes (1-3 MΩ access resistance) filled with 3M KCL were carefully guided into the oocyte using an upright microscope (Zeiss AxioTech). One micropipette was attached to a voltage-measuring headstage (HS-2Ax1 LU, Molecular Devices, Sunnyvale, Calif.) and the second micropipette was attached to a current-injecting headstage (HS-2Ax10MGU, Molecular Devices, Sunnyvale, Calif.). […]

[2] = test system: ShakerB-IR K^+ ion channel; settings: extracellular application; stated as known; cited from earlier work
[3] = test system: ShakerB-IR K^+ ion channel; assay: RF (500 kHz) impedance interrogation of ShakerB-IR expressing Xenopus oocytes under voltage clamp; type: cell-based; settings: ~120 μM Cu^2+, 500 kHz RF signal, FIG. 10
Description: Complementary deoxyribonucleic acid (cDNA) for the Shaker ion-channel variant ShakerB-IR (inactivation removed) was transformed in E. coli and linearized using the restriction enzyme, Kpn-1. cRNA was transcribed from linearized DNA, and 32 nL/cell of the transcribed RNA was injected into Xenopus oocytes. Recordings were done 24-48 hours after injection to allow time for protein expression. Currents were measured using two-microelectrode voltage clamp to verify ShakerB-IR ion channel expression. […]
(§2) RF voltage measurements were sampled through a head-stage voltage-follower operational amplifier (OPA356, Texas Instruments, Dallas, Tex.). The RF signal was high pass filtered (100 kHz, 48 DB/oct Bessel HPF; SIM965, Stanford Research Systems, Sunnyvale, Calif.) and detected by a lock-in amplification (0 integration time, SR844, Stanford Research Systems, Sunnyvale, Calif.). The quadrature outputs on the lock-in amplifier detected changes on the order of 10 microvolts, and time delays caused by the lock-in amplifier and HPF were accounted for prior to data analysis. TEVC data (command voltage, sensed voltage, measured current) and RF data (quadrature outputs from the lock-in amplifier) were sampled every 20 μs using a 16 bit A-D converter (ITC-18, HEKA Inst. Bellmore, N.Y.). […]

[4] = test system: control oocytes (endogenous protein response); assay: RF (500 kHz) impedance interrogation of control Xenopus oocytes under voltage clamp; type: cell-based; settings: ~120 μM Cu^2+, 500 kHz RF signal, FIG. 10
Description: as §1, §2

Structure (SMILES): [Cu+2] [Cu^2+]
- effect on ShakerB-IR K^+ current [1]: blocked the ShakerB-IR K^+ current
- known effect of extracellular Cu^2+ on K^+ conductance [2]: shift the K^+ conductance to more depolarized levels
- effect on charge displacement within the RF electric field (voltage-dependent RF impedance) [3]: increased charge displacement within the RF electric field
- effect on charge displacement within the RF electric field in control cells [4]: not observed to the same extent in control cells
